Results taken from US20110077232A1, “COMPOSITIONS COMPRISING ATORVASTATIN 4-(NITROOXY) BUTYL ESTER AND A HYPOLIPIDEMIC DRUG” (Nicox S.A., priority 2008, published 2011).

How the values were obtained:
female APOE*3Leiden mice [1] = experiment: Plasma ALT levels (liver function), Method 1; type: in vivo; conditions: for ALT: pooled plasma
Method: Alanine transaminase (ALT), as measure for liver function, was measured in pooled samples using the spectrophotometric assay of the Boehringer Reflotron system.

female APOE*3Leiden mice [2] = experiment: Total plasma cholesterol, Method 1; type: in vivo; design: decreased plasma cholesterol levels (vs control): concentration or dose not given beside the values; conditions: for Cholesterol: means ± SD
Method: Total plasma cholesterol was determined using kit “Chol R1” is from Roche.

female APOE*3Leiden mice [3] = experiment: Number of lesions in the aortic root, Method 2; type: in vivo; conditions: for influence on number of lesions as compared to the control group: 12 weeks, result in words; for Lesion number per cross section: t = 12 weeks, NO-atorvastatin 13.0 mg/kg, ezetimibe 0.1 then 0.3 mg/kg, means±SD
Method: (§1) Fifty-six female APOE*3Leiden mice (age 11-13 weeks, body weight 20-25 gram) were put on a semi-synthetic Western-type diet for 4 weeks and were subsequently treated with or without NO-atorvastatin (13.0 mg/kg b.w. or 0.0108% w/w), ezetimibe (0.1 mg/kg b.w. or 0.000083% w/w until week 6 and 0.3 mg/kg b.w. or 0.000249% w/w from week 6-12) and a combination of NO-atorvastatin with ezetimibe for 12 weeks. At time point t=0, t=4, t=8 and t=12 blood was collected for the measurement of the indicated lipid and inflammation parameters and at sacrifice serum, heart, thoracic aorta and liver were collected. The number of lesions and the number of undiseased segments in the aortic root were measured.
The number of lesions per cross section is presented as absolute values (means±SD).

female APOE*3Leiden mice [4] = experiment: Undiseased segments in the aortic root, Method 2; type: in vivo; conditions: 12 weeks; for Undiseased segments (% of total): aortic root, n=12 per group, means±SD
Method: as §1
The number of undiseased segments in the aortic root was counted individually (n=12 per group) and calculated as percentage of all quantified segments. Values are percentages (means±SD).

female APOE*3Leiden mice [5] = experiment: Progression of atherosclerosis (overall, lesion area), Method 2; type: in vivo; conditions: 12 weeks; result in words
Method: as §1

female APOE*3Leiden mice [6] = experiment: Plasma triglycerides, Method 1; type: in vivo; conditions: for Triglycerides: means ± SD
Method: (§2) At the end of each treatment period blood was collected for the indicated lipid and inflammation parameters and at sacrifice livers and plasma/serum were collected.
Triglycerides level was determined using kit “Triglycerides GPO-PAP” from Roche.

female APOE*3Leiden mice [7] = conditions: t = 8 weeks; means ± SD, n ≧ 9 mice per group
Method: as §2
P-Selectin, adhesion molecule as inflammation marker, was determined using commercially available Elisa kit.

[8] = t = 0 (before treatment), n ≧ 9 mice per group
[9] = t = 4 weeks, NO-atorvastatin 4.3 mg/kg, ezetimibe 0.1 mg/kg, fenofibrate 1 mg/kg in diet
[10] = t = 8 weeks, NO-atorvastatin 13 mg/kg, ezetimibe 0.1 mg/kg, fenofibrate 3 mg/kg from week 4
[11] = t = 4 weeks, NO-atorvastatin 4.3 mg/kg, ezetimibe 0.1 mg/kg, fenofibrate 1 mg/kg
[12] = t = 4 weeks, NO-atorvastatin 4.3 mg/kg, fenofibrate 1 mg/kg
[13] = t = 8 weeks, NO-atorvastatin 13 mg/kg, fenofibrate 3 mg/kg from week 4

Row | SMILES | ALT (female APOE*3Leiden mice [1]; [8]) | ALT (female APOE*3Leiden mice [1]; [9]) | ALT (female APOE*3Leiden mice [1]; [10]) | decreased plasma cholesterol levels (vs control) (female APOE*3Leiden mice [2]; after 4 weeks of treatment) | decreased plasma cholesterol levels (vs control) (female APOE*3Leiden mice [2]; after 8 weeks of treatment) | Cholesterol (female APOE*3Leiden mice [2]; [8]) | Cholesterol (female APOE*3Leiden mice [2]; [11]) | Cholesterol (female APOE*3Leiden mice [2]; [10]) | influence on number of lesions as compared to the control group (female APOE*3Leiden mice [3]) | Lesion number per cross section (female APOE*3Leiden mice [3]) | effect on number of undiseased segments (female APOE*3Leiden mice [4]; result in words) | Undiseased segments (% of total) (female APOE*3Leiden mice [4]) | effect on progression of atherosclerosis (female APOE*3Leiden mice [5]) | Triglycerides (female APOE*3Leiden mice [6]; [8]) | Triglycerides (female APOE*3Leiden mice [6]; [12]) | Triglycerides (female APOE*3Leiden mice [6]; [13]) | P-Selectin (female APOE*3Leiden mice [7]) | increased ALT levels as compared to the control mice (female APOE*3Leiden mice [1]; t=4 weeks) | increased ALT levels as compared to the control mice (female APOE*3Leiden mice [1]; t=8 weeks) | decrease of plasma triglycerides compared to the control group (female APOE*3Leiden mice [6]; t=8 weeks)
1 | O=C1[C@H](CC[C@H](O)c2ccc(F)cc2)[C@@H](c2ccc(O)cc2)N1c1ccc(F)cc1 [Ezetimibe, ezetimibe] | 120 U/L | 92 U/L | 81 U/L | −25% | −35% | 18.6 ± 2.6 mmol/L | 16.8 ± 2.4 mmol/L | 14.9 ± 3.2 mmol/L | did not influence the number of lesions | 3.5 ± 1.0 | did not affect the number of undiseased segments | 16.0 ± 14.8 % of total | did not affect the progression of atherosclerosis |  |  |  |  |  |  | 
2 | CC(C)c1c(C(=O)Nc2ccccc2)c(-c2ccccc2)c(-c2ccc(F)cc2)n1CC[C@@H](O)C[C@@H](O)CC(=O)OCCCCO[N+](=O)[O-] [NO-atorvastatin, atorvastatin 4-(nitrooxy) butyl ester] | 120 U/L | 114 U/L | 91 U/L | −21% | −34% | 18.6 ± 2.8 mmol/L | 17.7 ± 2.5 mmol/L | 15.2 ± 3.0 mmol/L | did not influence the number of lesions | 3.2 ± 0.7 |  | 26.4 ± 15.0 % of total | reduced atherosclerosis in lesion area | 2.7 ± 0.3 mmol/L | 3.2 ± 0.7 mmol/L | 2.7 ± 0.5 mmol/L | 190 ± 23 ng/mL |  |  | 
3 | CC(C)OC(=O)C(C)(C)Oc1ccc(C(=O)c2ccc(Cl)cc2)cc1 [Fenofibrate, fenofibrate] |  |  |  | no effect | −28% |  |  | 16.5 ± 2.2 mmol/L |  |  |  |  |  | 2.6 ± 0.7 mmol/L | 2.2 ± 0.5 mmol/L | 1.6 ± 0.5 mmol/L |  | +43% | +60% | 41%
